Data on two molecules can be found in patent US5190981A, “Formulation containing S(+) enantiomer of flurbiprofen or ketoprofen and method of use for oral administration for prevention and treatment of bone loss associated with periodontal disease” (Sepracor Inc., priority 1991, dated 1993).

Data set [1] is described as follows: Bioavailability of flurbiprofen enantiomers in toothpaste: five-way blinded crossover, blood levels over 24 h after toothbrushing, chiral HPLC. Particulars: for initial plasma concentrations of each enantiomer across formulations: from toothpaste formulation to toothpaste formulation; for initial plasma concentrations of each enantiomer across formulations / accumulation of enantiomers: data not shown; for accumulation of enantiomers: repeated use. The format is in vivo, human (healthy adult volunteers). The text has this:
The purpose of this study was to show how well subjects tolerated three strengths of S(+) flurbiprofen toothpaste (1%, 0.5% and 0.25%), as well as the relationship between dose and blood level of the active isomer in comparison with an identical formulation of racemic flurbiprofen (1%) or an intermediate formulation of 80% S(+) flurbiprofen and 20% R(-) flurbiprofen (1%). A toothpaste containing one of the three concentrations of S(+) flurbiprofen, the 1% intermediate formulation or 1% racemic flurbiprofen were used in the study.
The drug is an acid and, therefore, the formulation was adjusted to pH 5.6, in order to improve buccal absorption. The formulation also contained menthol or wintergreen in order to mask the slight bitter taste of the drug. Standard formulation techniques were used.
Eight healthy adult volunteers were selected as subjects for the five-way, blinded, crossover study of flurbiprofen blood levels over a 24 hour period following toothbrushing with toothpastes containing the different concentrations of S(+) flurbiprofen and R(-) flurbiprofen. Each volunteer brushed with about 1 g of a toothpaste formulation for 1 minute followed by rinsing twice daily for 3 days. On the fourth morning, brushing with 1 g of the toothpaste formulation was repeated and blood samples were collected for subsequent analysis at -0.25, 0.25, 1, 2, 4, 8, 12, 23 and 24 hours relative to this toothbrushing episode. Each treatment period was followed by a washout interval of 4 days before the next toothpaste formulation was provided.
The concentration of the individual enantiomers was determined by HPLC on chiral-APG (5μ. 100×4 mm). The mobile phase was 1% 2-propanol in 10 mM NaH2 PO4 buffer, pH 7.0, at 0.6 ml/min. The enantiomers were detected by fluorescence monitoring with excitation at 250 nm and emission at 315 nm. The individual enantiomers were detectable down to 5-10 ng/ml. Standard and calibration curves were prepared for each set of samples and an internal standard of S(+) ibuprofen was added to all samples. Pharmacokinetic calculations were non-compartmental and employed conventional data analysis (linear trapezoidal role) to determine the concentrations or total amounts for each enantiomer and formulation that were analyzed.
The results of this study are presented as follows: 1% by weight racemic flurbiprofen (1S, 1R); 1% by weight 80% S(+) flurbiprofen, 20% R(-) flurbiprofen as a eutectic mixture (2S, 2R); 1% by weight 95% S(+) flurbiprofen, 5% R(-) flurbiprofen (3S); 0.5% by weight 95% S(+) fluriprofen, 5% R(-) flurbiprofen (4S); and 0.25% by weight 95% S(+) flurbiprofen, 5% R(-) flurbiprofen (5S). It should be noted that approximately equivalent amounts (5 mg) of S(+)flurbiprofen were administered in results denoted 1S and 4S. The results from the present study have been further compared with calculations based on results from a previous study by Stalker et al. "Bioavailability of Flurbiprofen following Buccal Administration", Pharm Res. 8, 605-608 (1991). The calculated amounts of administered enantiomer in this previous study are 5 mg buccal S(+) flurbiprofen as a mouthwash (buccal S) or 5 mg PO S(+) flurbiprofen (PO S).

For data set [2] the following is noted: oral; cited from earlier work.

`C[C@@H](C(=O)O)c1ccc(-c2ccccc2)c(F)c1` [R(-) flurbiprofen]: in data set [1], the “initial plasma concentrations of each enantiomer across formulations” value is given as “approximately the same”. Further, the accumulation of enantiomers result in data set [1] (toothpaste) is listed as “no accumulation”.

On to `C[C@H](C(=O)O)c1ccc(-c2ccccc2)c(F)c1` [S(+) flurbiprofen], for which, in data set [2], the “absorption when taken orally” value is “readily absorbed”. In data set [1] (comparison of 1S and 4S, toothpaste), the “absorption of S(+) enantiomer alone vs as racemic mixture” value is reported as “preferentially absorbed when administered alone in a toothpaste formulation than when administered as a racemic mixture”. In addition, the “blood concentration and persistence, toothpaste vs mouthwash or PO” value in data set [1] (equivalent amounts of S(+) flurbiprofen, e.g. 1S and 4S compared to buccal S or PO S) was “higher and its availability is more persistent when in a toothpaste formulation”. Also, in data set [1], the “initial plasma concentrations of each enantiomer across formulations” value is on record as “approximately the same”. The “dose relationship of plasma concentrations, 0.25% to 0.5%” value in data set [1] (toothpaste between 0.25% and 0.5% by weight) is recorded as “dose dependent relationship of plasma concentrations”. Besides, in data set [1] (toothpaste, 1% by weight), the “dose relationship of plasma concentrations at 1%” value was “non-linear at 1% by weight”. The accumulation of enantiomers entry in data set [1] (toothpaste) is recorded as “no accumulation”.
